Results as given in patent US20260078120A1, “SUBSTITUTED PYRIDOPYRIMIDINONES” (MIRATI THERAPEUTICS, INC., priority 2022, published 2026).

Experiments:
Assay type in all cases: cell-based
[1] = tested on: SKBR3 (PI3Kα wild type) cells; assay: CellTiter-Glo 2.0 luminescent cell viability assay, 72 hours, SKBR3 cells; conditions: Homo sapiens, SK-BR-3, 72 h, SKBR3 (PI3Kα wild type) cells, CellTiter-Glo, approximately 72 hours; read-out: SKBR3 (WT) Viability IC50
Outline: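 Viability measured via CTG luminescence following roughly 72 hours of compound exposure at 37° C. Dosing used a 10 um starting concentration diluted 1:4 over 10 points; percent-of-vehicle data fitted with a variable-slope four-parameter model for IC50.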

[2] = tested on: SKBR3 (PI3Kα wild type) cells; assay: Inhibition of pAKT formation, alphaLISA SureFire Ultra AKT 1/2/3 (pS473), SKBR3 cells; conditions: Homo sapiens, SK-BR-3; Inhibition of pAKT in SKBR3 (PI3Kα wild type) cells; read-out: SKBR3 (WT) pAKT IC50 (nM) (H1047R mutant) IC50
Experimental: (§1) The ability of a compound of Formula (I) to inhibit the formation of pAKT was measured using alphaLISA Surefire Ultra AKT 1/2/3 (pS473) Assay Kit (#ALSU-PAKT-B50K) was obtained from Perkin Elmer (Waltham, MA).
(§2) To prepare assay plates for pAKT alphaLISA assays, cells were trypsinized, resuspended in fresh media, and viable cells were counted utilizing trypan blue exclusion. Prior to seeding, cells were washed with PBS and resuspended in HBSS (Gibco, #14025092). T47D (12,000/w), SKBR3(12,000/w), or MKN1(24,000/w) cells were seeded at 12 μl per well in a solid white flat bottom 384 cell culture plate (Perkin Elmer #6007680).
(§3) Immediately after seeding, cells were dosed using an Echo Liquid Handler (Beckman Coulter) with compounds at a […] starting concentration and serially diluted (1:4) for a total of 10 concentrations. […] Cells were incubated with the compounds (solubilized in DMSO) for approximately one hour or 24 hours at 37° C. After one hour (or 24 hours) of treatment, cells were lysed with 3 μl of the 5× lysis buffer (provided and incubated at room temperature for 15 min on a microtiter plate shaker). Once cells were sufficiently lysed, 7.5 μl of the acceptor bead mix (made using the manufacturers recommended dilutions) was added to each well and left on the microtiter plate shaker for 1 min prior to incubating plates at room temperature for one hour, in the absence of light. After one hour of incubation with the acceptor bead mix, 7.5 μl of the donor bead mix (made using the manufacturers recommended dilutions) was added to each well and left on the microtiter plate shaker for 1 min prior to incubating plates at room temperature overnight in the absence of light. Plates were then imaged the following day using a CLARIOstar microplate reader (BMG Labtech, Germany).
(§4) Percent of control values were calculated by subtracting the average signal from the positive control (alpelisib) treated wells from all treated wells (including DMSO control wells) and then divided by the average signal from the vehicle DMSO treated control wells. Percent of vehicle control values were plotted as log (inhibitor) vs. response-Variable slope (four parameters) for curve fitting and IC50 values were determined using XLfit.
(§5) Key: N.D. =not determined

[3] = tested on: MKN1 (PI3Kα E545K mutant) cells; assay: Inhibition of pAKT formation, alphaLISA SureFire Ultra AKT 1/2/3 (pS473), MKN1 cells; conditions: Homo sapiens, MKN-1; MKN1 (PI3Kα E545K mutant) cells; inhibition of pAKT (pS473) formation; approximately one hour or 24 hours treatment; read-out: MKN1 (E545K) pAKT IC50
Experimental: as §1, §2, §3, §4, §5

[4] = tested on: T47D (PI3Kα H1047R mutant) cells; assay: CellTiter-Glo 2.0 luminescent cell viability assay, 72 hours, T47D cells; conditions: Homo sapiens, T47D, 72 h, T47D (PI3Kα H1047R mutant) cells, CellTiter-Glo, approximately 72 hours; read-out: T47D (H1047R mutant) Viability IC50
Outline: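 Viability was measured by CellTiter-Glo 2.0 luminescence after approximately 72 h of compound exposure at 37° C. Plating was 1000 cells per well the day before dosing, with ten 1:4 dilutions from a 10 µM top concentration. Values as percent of vehicle were fitted by variable-slope log(inhibitor) regression to give IC50.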

[5] = tested on: T47D (PI3Kα H1047R mutant) cells; assay: Inhibition of pAKT formation, alphaLISA SureFire Ultra AKT 1/2/3 (pS473), T47D cells; conditions: Homo sapiens, T47D, T47D (PI3Kα H1047R mutant) cells; inhibition of pAKT (pS473) formation; approximately one hour or 24 hours treatment; read-out: T47D pAKT (H1047R mutant) IC50
Outline: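 AKT Ser473 phosphorylation was quantified by alphaLISA SureFire Ultra after roughly 1 h or 24 h compound exposure at 37 °C. Cells were T47D (12,000/well in HBSS), treated with a 10-point 1:4 series starting at 10.4 μM. Percent of control used alpelisib background and DMSO reference, and IC50 came from four-parameter logistic fitting.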

Q: What does the source list for `Cc1cc(C(C)Sc2ccccc2C(=O)O)c2nc(N3CCCCC3)cc(=O)n2c1` (stereo not drawn) [Example 3-10, 2-((1-(7-methyl-4-oxo-2-(piperidin-1-yl)-4H-pyrido[1,2-a]pyrimidin-9-yl)ethyl)thio)benzoic acid]?
A: IC50 [1]: > 10000 nM; IC50 [2]: > 10000 nM; IC50 [3]: > 10000 nM; IC50 [4]: > 10000 nM; IC50 [5]: 2510 nM

Q: `Cc1cc(C(C)N(C)c2ccccc2C(=O)O)c2nc(N3CCCCC3)cc(=O)n2c1` (stereo not drawn) [Example 3-21, 2-(methyl(1-(7-methyl-4-oxo-2-(piperidin-1-yl)-4H-pyrido[1,2-a]pyrimidin-9-yl)ethyl)amino)benzoic acid] was tested. Which IC50 [3] did it give?
A: > 10000 nM

Q: What about the IC50 [5] of the same molecule?
A: > 10000 nM

Q: How did the IC50 [1] turn out when `Cc1cc(C(C)Nc2ccccc2C(=O)O)c2nc(N3CCC4(CC3)CC4)cc(=O)n2c1` (stereo not drawn) [Example 3-22, 2-((1-(7-methyl-4-oxo-2-(6-azaspiro[2.5]octan-6-yl)-4H-pyrido[1,2-a]pyrimidin-9-yl)ethyl)amino)benzoic acid] was run?
A: 799 nM

Q: What about the IC50 [2] of the same molecule?
A: > 10000 nM

Q: What about the IC50 [3] of the same molecule?
A: 3250 nM

Q: And the IC50 [4]?
A: 1640 nM

Q: What about the IC50 [5] of the same molecule?
A: 70.5 nM

Q: Which IC50 [1] does the source give for `Cc1cc([C@@H](C)Nc2ccccc2C(=O)O)c2nc(N3CCCCC3)c(C(N)=O)c(=O)n2c1` [Example 10-70, (R)-2-((1-(3-carbamoyl-7-methyl-4-oxo-2-(piperidin-1-yl)-4H-pyrido[1,2-a]pyrimidin-9-yl)ethyl)amino)benzoic acid] here?
A: > 10000 nM

Q: And the IC50 [2]?
A: > 10000 nM

Q: And the IC50 [4]?
A: 4680 nM

Q: And the IC50 [5]?
A: > 10000 nM

Q: Which IC50 [1] does the source give for `Cc1cc([C@@H](C)Nc2ccccc2C(=O)O)c2nc(N3CCCCC3)c(C(F)(F)F)c(=O)n2c1` [Example 10-71, (R)-2-((1-(7-methyl-4-oxo-2-(piperidin-1-yl)-3-(trifluoromethyl)-4H-pyrido[1,2-a]pyrimidin-9-yl)ethyl)amino)benzoic acid] here?
A: > 10000 nM

Q: What about the IC50 [2] of the same molecule?
A: > 10000 nM

Q: And the IC50 [4]?
A: 4890 nM

Q: And the IC50 [5]?
A: > 10000 nM

Q: What does the source list for `Cc1cc([C@@H](C)Nc2ccccc2C(=O)O)c2nc(N3CCC(C)(C)CC3)c(C#N)c(=O)n2c1` [Example 10-72, (R)-2-((1-(3-cyano-2-(4,4-dimethylpiperidin-1-yl)-7-methyl-4-oxo-4H-pyrido[1,2-a]pyrimidin-9-yl)ethyl)amino)benzoic acid]?
A: IC50 [1]: > 10000 nM; IC50 [2]: 2480 nM; IC50 [4]: 151 nM; IC50 [5]: 1.33 nM

Q: Which results are given for `Cc1cc([C@@H](C)Nc2ccccc2C(=O)O)c2nc(N3CCCC3)c(C#N)c(=O)n2c1` [Example 10-73, (R)-2-((1-(3-cyano-7-methyl-4-oxo-2-(pyrrolidin-1-yl)-4H-pyrido[1,2-a]pyrimidin-9-yl)ethyl)amino)benzoic acid]?
A: IC50 [1]: > 10000 nM; IC50 [2]: 1030 nM; IC50 [4]: 135 nM; IC50 [5]: 3.29 nM

Q: Which IC50 [1] does the source give for `Cc1cc([C@@H](C)Nc2ccccc2C(=O)O)c2nc(N3CCCCC3)c(C)c(=O)n2c1` [Example 10-74, (R)-2-((1-(3,7-dimethyl-4-oxo-2-(piperidin-1-yl)-4H-pyrido[1,2-a]pyrimidin-9-yl)ethyl)amino)benzoic acid] here?
A: > 10000 nM

Q: And the IC50 [2]?
A: 1460 nM

Q: And the IC50 [4]?
A: 120 nM

Q: What about the IC50 [5] of the same molecule?
A: 3.23 nM

Q: For `Cc1cc([C@@H](C)Nc2ccccc2C(=O)O)c2nc(N3CCCCC3)c(C#N)c(=O)n2c1` [Example 10-99, (R)-2-((1-(3-cyano-7-methyl-4-oxo-2-(piperidin-1-yl)-4H-pyrido[1,2-a]pyrimidin-9-yl)ethyl)amino)benzoic acid], which IC50 [1] is on record?
A: 9940 nM

Q: What about the IC50 [2] of the same molecule?
A: 2260 nM

Q: And the IC50 [4]?
A: 86.2 nM

Q: What about the IC50 [5] of the same molecule?
A: 0.978 nM
